Earlier results as cited in EP4628546A1, “CYANINE DIMERS FOR PHOTOTHERMAL TREATMENT OF CANCER GUIDED BY FLUORESCENCE/PHOTOACOUSTIC IMAGING” (Centre National de la Recherche Scientifique, priority 2024, dated 2025).

Conditions: IR 780 in EtOH, reference value

Φfluo,ref: 0.08
SMILES: CCCN1/C(=C/C=C2\CCCC(/C=C/C3=[N+](CCC)c4ccccc4C3(C)C)=C2Cl)C(C)(C)c2ccccc21.[I-] [IR 780]
